# According to EP1500391A1, “Therapeutic use of bicycloheptane derivatives” (NEURO3D, priority 2003, dated 2005):
# Read-outs that look alike come from different tables or passages of the source.
# How the values were obtained:
# [1] = test system: non-selective sigma receptor; assay: σ radioligand binding assay ([3H]DTG); details: inhibition of control specific binding; at 1µM (concentration printed only in head of Cpd A); rat cerebral cortex
# [2] = target: human dopamine D2S receptor (Homo sapiens, UniProt P14416); assay: D2 radioligand binding assay ([3H]spiperone); details: read-out: %inhibition D2
# human 5-HT2C receptor = target: T1, human 5-HT2C receptor (Homo sapiens, UniProt P28335); assay: 5HT2c radioligand binding assay ([3H]mesulergine); details: inhibition of control specific binding; at 1µM (concentration printed only in head of Cpd A); transfected CHO cells
# T1 construct: expressed in transfected cells; host or cells: CHO cells
# T1 sequence (P28335 33-458): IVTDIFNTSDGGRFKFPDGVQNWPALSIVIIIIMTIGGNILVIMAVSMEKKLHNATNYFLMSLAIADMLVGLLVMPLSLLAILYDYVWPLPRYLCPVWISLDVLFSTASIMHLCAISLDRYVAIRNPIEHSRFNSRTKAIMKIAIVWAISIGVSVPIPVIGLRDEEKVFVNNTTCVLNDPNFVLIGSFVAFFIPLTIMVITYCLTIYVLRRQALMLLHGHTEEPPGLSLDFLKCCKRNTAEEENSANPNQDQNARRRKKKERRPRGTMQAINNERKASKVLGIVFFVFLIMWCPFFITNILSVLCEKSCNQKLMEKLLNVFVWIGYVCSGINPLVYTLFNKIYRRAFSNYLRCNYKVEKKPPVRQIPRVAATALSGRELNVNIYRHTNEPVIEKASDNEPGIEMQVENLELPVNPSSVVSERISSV
# human 5-HT2A receptor = target: T2, human 5-HT2A receptor (Homo sapiens, UniProt P28223); assay: 5HT2a radioligand binding assay ([3H]ketanserin); details: inhibition of control specific binding; at 1µM (concentration printed only in head of Cpd A); human recombinant
# T2 construct: expressed in transfected cells; host or cells: HEK-293 cells
# human 5-HT6 receptor = human 5-HT6 receptor (Homo sapiens, UniProt P50406); assay: 5HT6 radioligand binding assay ([3H] LSD); details: read-out: %inhibition 5HT6
# Description: 5HT6 ASSAY : Evaluation of the affinity of compounds for the human 5-HT6 receptor in transfected HEK 293 cells determined in a radioligand binding assay. Cell membrane homogenates (15-20 µg protein) were incubated for 60 min at 37°C with 2 nM [^3H] LSD in the absence or presence of the test compound in a buffer containing 50 mM Tris-HCl (pH 7.4), 10 mM MgCl2 and 0.5 mM EDTA. Nonspecific binding was determined in the presence of 100 µM 5-HT. Following incubation, the samples were filtered rapidly under vacuum through glass fiber filters (GF/B, Packard) presoaked with 0.3% PEI and rinsed several times with ice-cold 50 mM Tris-HCl using a 96-sample cell harvester (Unifilter, Packard). The filters were dried then counted for radioactivity in a scintillation counter (Topcount, Packard) using a scintillation cocktail (Microscint 0, Packard).
# The specific ligand binding to the receptor is defined as the difference between the total binding and the non specific binding determined in the presence of an excess of unlabelled ligand. The results are expressed as a percentage of control specific binding and as a percentage inhibition of control specific binding obtained in the presence of the compounds.
# [3] = target: human dopamine D3 receptor (Homo sapiens, UniProt P35462); assay: D3 radioligand binding assay ([3H]spiperone); details: read-out: %inhibition D3
# Description: Nonspecific binding was determined in the presence of 10 µM (+)butaclamol. Following incubation, the samples were filtered rapidly under vacuum through glass fiber filters (GF/B, Packard) presoaked with 0.3% PEI and rinsed several times with ice-cold 50 mM Tris-HCl using a 96-sample cell harvester (Unifilter, Packard). The filters were dried then counted for radioactivity in a scintillation counter (Topcount, Packard) using a scintillation cocktail (Microscint 0, Packard). The specific ligand binding to the receptor is defined as the difference between the total binding and the non specific binding determined in the presence of an excess of unlabelled ligand. The results are expressed as a percentage of control specific binding and as a percentage inhibition of control specific binding obtained in the presence of the compounds.
# [4] = inhibition of control specific binding, at 1µM (concentration printed only in head of Cpd A), transfected CHO cells
# human dopamine D2S receptor, sequence (P14416 1-414 isoform P14416-2): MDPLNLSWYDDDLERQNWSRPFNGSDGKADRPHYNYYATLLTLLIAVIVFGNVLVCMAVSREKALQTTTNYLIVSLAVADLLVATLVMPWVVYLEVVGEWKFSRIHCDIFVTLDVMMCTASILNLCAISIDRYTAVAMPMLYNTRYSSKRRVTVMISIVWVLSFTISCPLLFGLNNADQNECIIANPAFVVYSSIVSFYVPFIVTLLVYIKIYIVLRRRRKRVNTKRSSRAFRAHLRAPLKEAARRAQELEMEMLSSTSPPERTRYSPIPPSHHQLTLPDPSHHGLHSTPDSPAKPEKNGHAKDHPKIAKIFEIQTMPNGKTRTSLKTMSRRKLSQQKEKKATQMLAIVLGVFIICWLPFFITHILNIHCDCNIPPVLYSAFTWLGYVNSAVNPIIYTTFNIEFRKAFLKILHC
# human dopamine D3 receptor, sequence (P35462 whole entry): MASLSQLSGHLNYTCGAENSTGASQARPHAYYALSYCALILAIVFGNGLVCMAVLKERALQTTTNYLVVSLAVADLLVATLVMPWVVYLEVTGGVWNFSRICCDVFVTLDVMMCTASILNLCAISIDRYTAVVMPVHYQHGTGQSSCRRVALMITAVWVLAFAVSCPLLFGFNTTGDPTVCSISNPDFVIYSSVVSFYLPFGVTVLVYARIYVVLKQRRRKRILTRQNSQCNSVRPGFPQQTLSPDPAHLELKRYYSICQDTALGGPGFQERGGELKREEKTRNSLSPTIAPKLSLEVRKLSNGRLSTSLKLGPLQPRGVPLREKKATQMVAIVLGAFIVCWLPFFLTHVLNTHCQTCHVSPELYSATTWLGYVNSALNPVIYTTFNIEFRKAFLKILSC
# human 5-HT6 receptor, sequence (P50406 whole entry): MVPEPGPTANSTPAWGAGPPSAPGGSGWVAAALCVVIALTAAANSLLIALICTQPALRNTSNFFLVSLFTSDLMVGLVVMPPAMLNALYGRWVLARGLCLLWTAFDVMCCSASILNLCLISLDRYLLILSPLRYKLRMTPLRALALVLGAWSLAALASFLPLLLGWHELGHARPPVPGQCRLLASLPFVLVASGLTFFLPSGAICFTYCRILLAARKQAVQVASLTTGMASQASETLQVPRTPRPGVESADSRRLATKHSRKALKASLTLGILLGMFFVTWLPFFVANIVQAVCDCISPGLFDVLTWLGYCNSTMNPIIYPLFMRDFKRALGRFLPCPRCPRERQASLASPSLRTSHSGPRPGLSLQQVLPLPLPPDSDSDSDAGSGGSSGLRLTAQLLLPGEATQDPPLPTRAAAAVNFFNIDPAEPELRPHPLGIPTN
# T2 sequence (P28223 whole entry): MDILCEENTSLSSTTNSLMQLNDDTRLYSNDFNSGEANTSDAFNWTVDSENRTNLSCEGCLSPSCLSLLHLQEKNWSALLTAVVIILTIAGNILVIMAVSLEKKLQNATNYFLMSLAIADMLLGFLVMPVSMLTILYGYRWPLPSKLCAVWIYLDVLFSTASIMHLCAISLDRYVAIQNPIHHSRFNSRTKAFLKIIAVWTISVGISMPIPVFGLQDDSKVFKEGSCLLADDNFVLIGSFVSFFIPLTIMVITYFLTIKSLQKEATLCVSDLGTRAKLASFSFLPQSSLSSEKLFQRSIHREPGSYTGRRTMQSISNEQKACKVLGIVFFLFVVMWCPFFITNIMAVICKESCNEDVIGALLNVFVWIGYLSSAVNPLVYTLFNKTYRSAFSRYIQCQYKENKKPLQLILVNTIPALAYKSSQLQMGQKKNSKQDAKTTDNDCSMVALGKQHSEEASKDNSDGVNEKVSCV
SMILES,%inhibition σ [1] [%],inhibition at 1 µM [2] [%],inhibition at 1 µM (human 5-HT2C receptor) [%],inhibition at 1 µM (human 5-HT2A receptor) [%],inhibition at 1 µM (human 5-HT6 receptor) [%],inhibition at 1 µM [3] [%],"inhibition at 1 µM [2, 4] [%]","inhibition at 1 µM [3, 4] [%]"
"CN(C)CCO[C@]1(c2ccccc2)C[C@H]2CC[C@]1(C)C2(C)C [Cpd B, (1R,2S,4R)-(-)-2-[N,N-(dimethylaminoethoxy)]-2-phenyl-1,7,7-trimethyl-bicyclo[2.2.1]heptane]",72,74,99,99,88,89,–,–
"CNCCO[C@@]1(c2ccccc2)C[C@@H]2CC[C@@]1(C)C2(C)C [Cpd C, (1S,2R,4S)-(+)-2-methylaminoethoxy-2-phenyl-1,7,7-trimethyl-bicyclo[2.2.1]heptane]",–,–,65,89,36,–,10,24
"CNCCO[C@]1(c2ccccc2)C[C@H]2CC[C@]1(C)C2(C)C [Cpd D, (1R,2S,4R)-(-)-2-methylaminoethoxy-2-phenyl-1,7,7-trimethyl-bicyclo[2.2.1]heptane]",–,–,97,98,89,–,57,81
"CN(C)CCO[C@@]1(c2ccccc2)C[C@@H]2CC[C@@]1(C)C2(C)C [Cpd A, (1S,2R,4S)-(+)-2-[N,N-(dimethylaminoethoxy)]-2-phenyl-1,7,7-trimethyl-bicyclo[2.2.1]heptane]",56,29,79,93,44,32,–,–
